Our source for the IC50 values is patent publication US10821115B2, “Compounds that inhibit Mcl-1 protein” (priority 2017, dated 2020).

For the first assay, the system named is human multiple myeloma cell line, OPM-2. The assay can be described thus: Cell viability assay (OPM-2 10 FBS), CellTiter-Glo. Format: cell-based. The following applies: Homo sapiens, OPM-2, 16 h, read-out: OPM-2 10% FBS IC50 IP, OPM-2 cells, 10% FBS, 16 h, CellTiter-Glo. The method, then:
Cell viability assay (OPM-2 10 FBS)
The human multiple myeloma cell line, OPM-2, was cultured in complete growth medium containing RPMI 1640 and 10% fetal bovine serum (FBS). Cells were seeded into 384-well plates at 3000 cells/well density in complete growth medium containing 10% FBS, and incubated for 16 h with serially diluted test compounds in a 37° C. incubator with 5% CO2. Cell viability was tested using CellTiter-Glo® assay (Promega, Madison, Wis.) according to the manufacturer recommendations. Luminescence was determined using an EnVision® Multilabel plate reader 25 min after the addition of detection reagent. IC50 values were then calculated with Xlfit using a logistical 4-parameter fit model in GraphPad Prism (GraphPad Software, San Diego, Calif.) or in Genedata Screener® (Genedata, Basel, Switzerland).
As a reminder, the IC50 is the midpoint of a concentration-inhibition curve. `C=C(C)C(=O)C[C@]1(OC)/C=C/C[C@H](C)[C@@H](C)S(=O)(=O)NC(=O)c2ccc3c(c2)N(C[C@@H]2CC[C@H]21)C[C@@]1(CCCc2cc(Cl)ccc21)CO3` [Example 100476, (1S,3′R,6′R,7′S,8′E,11′S,12′R)-6-chloro-7′-methoxy-11′,12′-dimethyl-7′-(3-methyl-2-oxo-3-buten-1-yl)-3,4-dihydro-2H,15′H-spiro[naphthalene-1,22′-[20]oxa[13]thia[1,14]diazatetracyclo [14.7.2.0~3,6~.0~19,24~]pentacosa[8,16,18,24]tetraen]-15′-one 13′,13′-dioxide]: the half-maximal inhibitory concentration (IC50) worked out at 1340 nM.
`COC[C@@]1(OC)/C=C/C[C@H](C)[C@@H](C)S(=O)(=O)NC(=O)c2ccc3c(c2)N(C[C@@H]2CC[C@H]21)C[C@@]1(CCCc2cc(Cl)ccc21)CO3` [Example 100464, (1S,3′R,6′R,7′R,8′E,11′S,12′R)-6-chloro-7′-methoxy-7′-(methoxymethyl)-11′,12′-dimethyl-3,4-dihydro-2H,15′H-spiro[naphthalene-1,22′-[20]oxa[13]thia[1,14]diazatetracyclo [14.7.2.0~3,6~.0~19,24~]pentacosa[8,16,18,24]tetraen]-15′-one 13′,13′-dioxide]: the IC50 is 1530 nM.
`CO[C@@]1(CC(N)=O)/C=C/C[C@H](C)[C@@H](C)S(=O)(=O)NC(=O)c2ccc3c(c2)N(C[C@@H]2CC[C@H]21)C[C@@]1(CCCc2cc(Cl)ccc21)CO3` [Example 100589, 2-((1S,3′R,6′R,7′S,8′E,11′S,12′R)-6-chloro-7′-methoxy-11′,12′-dimethyl-13′,13′-dioxido-15′-oxo-3,4-dihydro-2H-spiro[naphthalene-1,22′-[20]oxa[13]thia[1,14]diazatetracyclo [14.7.2.0~3,6~.0~19,24~]pentacosa[8,16,18,24]tetraen]-7′-yl)acetamide]: the IC50 stood at 3330 nM.
Same read-out and setting: as for `CO[C@@]1(CC(=O)N(C)C2CC2)/C=C/C[C@H](C)[C@@H](C)S(=O)(=O)NC(=O)c2ccc3c(c2)N(C[C@@H]2CC[C@H]21)C[C@@]1(CCCc2cc(Cl)ccc21)CO3` [Example 100374, 2-((1S,3′R,6′R,7′S,8′E,11′S,12′R)-6-chloro-7′-methoxy-11′,12′-dimethyl-13′,13′-dioxido-15′-oxo-3,4-dihydro-2H-spiro[naphthalene-1,22′-[20]oxa[13]thia[1,14]diazatetracyclo [14.7.2.0~3,6~.0~19,24~]pentacosa[8,16,18,24]tetraen]-7′-yl)-N-cyclopropyl-N-methylacetamide], the figure is 433 nM.

The same assay, now with this note: Homo sapiens, OPM-2, 16 h, read-out: OPM-2 10% FBS IC50 IP, OPM-2 cells, 10% FBS, 16 h incubation.
Take `CO[C@@]1(CN2CCN3CCCC[C@H]3C2)/C=C/C[C@H](C)[C@@H](C)S(=O)(=O)NC(=O)c2ccc3c(c2)N(C[C@@H]2CC[C@H]21)C[C@@]1(CCCc2cc(Cl)ccc21)CO3` [Example 79, (1S,3′R,6′R,7′S,8′E,11′S,12′R)-6-chloro-7′-methoxy-11′,12′-dimethyl-7′-((9aS)-octahydro-2H-pyrido[1,2-a]pyrazin-2-ylmethyl)-3,4-dihydro-2H,15′H-spiro[naphthalene-1,22′-[20]oxa[13]thia[1,14]diazatetracyclo [14.7.2.0~3,6~.0~19,24~]pentacosa[8,16,18,24]tetraen]-15′-one 13′,13′-dioxide]: the concentration for half-maximal inhibition (IC50) was found to be 245 nM.
On the same count and under the same terms, with `CCO[C@]1(CN2CCN(C(C)C)CC2)/C=C/C[C@H](C)[C@@H](CCOC)S(=O)(=O)NC(=O)c2ccc3c(c2)N(C[C@@H]2CC[C@H]21)C[C@@]1(CCCc2cc(Cl)ccc21)CO3` [Example 16, (1S,3′R,6′R,7′R,8′E,11′S,12′R)-6-chloro-7′-ethoxy-12′-(2-methoxyethyl)-11′-methyl-7′-((4-(1-methylethyl)-1-piperazinyl)methyl)-3,4-dihydro-2H, 15′H-spiro[naphthalene-1,22′-[20]oxa[13]thia[1,14]diazatetracyclo[14.7.2.0-3,6˜.0˜19,24˜]pentacosa[8,16,18,24]tetraen]-15′-one 13′,13′-dioxide] the figure was 53 nM; with `CO[C@]1(CNCCN2CCOCC2)/C=C/C[C@H](C)[C@@H](C)S(=O)(=O)NC(=O)c2ccc3c(c2)N(C[C@@H]2CC[C@H]21)C[C@@]1(CCCc2cc(Cl)ccc21)CO3` [Example 36, (1S,3′R,6′R,7′R,8′E,11′S,12′R)-6-chloro-7′-methoxy-11′,12′-dimethyl-7′-(((2-(4-morpholinyl)ethyl)amino)methyl)-3,4-dihydro-2H,15′H-spiro[naphthalene-1,22′-[20]oxa[13]thia[1,14]diazatetracyclo [14.7.2.0~3,6~.0~19,24~]pentacosa[8,16,18,24]tetraen]-15′-one 13′,13′-dioxide], 518 nM.
Take `CC[C@@H]1CC/C=C/[C@@](CN2CCN3CCCC[C@@H]3C2)(OC)[C@@H]2CC[C@H]2CN2C[C@@]3(CCCc4cc(Cl)ccc43)COc3ccc(cc32)C(=O)N(C)S1(=O)=O` [Example 33, (1 S,3′R,6′R,7′R,8′E,12′R)-6-chloro-12′-ethyl-7′-methoxy-14′-methyl-7′-((9aR)-octahydro-2H-pyrido[1,2-a]pyrazin-2-ylmethyl)-3,4-dihydro-2H,15′H-spiro[naphthalene-1,22′-[20]oxa[13]thia[1,14]diazatetracyclo[14.7.2.0-3,6˜.0˜19,24˜]pentacosa[8,16,18,24]tetraen]-15′-one 13′,13′-dioxide]: the IC50 was determined as 5570 nM.
Still for that read-out and setting: as for `CO[C@@]1(CN2CCN3CCCC[C@@H]3C2)/C=C/C[C@H](C)[C@@H](C)S(=O)(=O)NC(=O)c2ccc3c(c2)N(C[C@@H]2CC[C@H]21)C[C@@]1(CCCc2cc(Cl)ccc21)CO3` [Example 197, (1S,3′R,6′R,7′S,8′E,11′S,12′R)-6-chloro-7′-methoxy-11′,12′-dimethyl-7′-((9aR)-octahydro-2H-pyrido[1,2-a]pyrazin-2-ylmethyl)-3,4-dihydro-2H,15′H-spiro[naphthalene-1,22′-[20]oxa[13]thia[1,14]diazatetracyclo [14.7.2.0~3,6~.0~19,24~]pentacosa[8,16,18,24]tetraen]-15′-one 13′,13′-dioxide], the figure is 129 nM; as for `COCC(COC)N1CCN(C[C@]2(OC)/C=C/C[C@H](C)[C@@H](C)S(=O)(=O)NC(=O)c3ccc4c(c3)N(C[C@@H]3CC[C@H]32)C[C@@]2(CCCc3cc(Cl)ccc32)CO4)CC1` [Example 287, (1S,3′R,6′R,7′S,8′E,11′S,12′R)-6-chloro-7′-methoxy-7′-((4-(2-methoxy-1-(methoxymethyl)ethyl)-1-piperazinyl)methyl)-11′,12′-dimethyl-3,4-dihydro-2H,15′H-spiro[naphthalene-1,22′-[20]oxa[13]thia[1,14]diazatetracyclo [14.7.2.0~3,6~.0~19,24~]pentacosa[8,16,18,24]tetraen]-15′-one 13′,13′-dioxide], 50 nM; as for `CO[C@@]1(CN2CCN(CCS(C)(=O)=O)CC2)/C=C/C[C@H](C)[C@@H](C)S(=O)(=O)NC(=O)c2ccc3c(c2)N(C[C@@H]2CC[C@H]21)C[C@@]1(CCCc2cc(Cl)ccc21)CO3` [Example 81], 112 nM.
Still for that read-out and setting: with `COCCN(CCOC)C1CCN(C[C@]2(OC)/C=C/C[C@H](C)[C@@H](C)S(=O)(=O)NC(=O)c3ccc4c(c3)N(C[C@@H]3CC[C@H]32)C[C@@]2(CCCc3cc(Cl)ccc32)CO4)CC1` [Example 308, (1S,3′R,6′R,7′S,8′E,11′S,12′R)-7′-((4-(bis(2-methoxyethyl)amino)-1-piperidinyl)methyl)-6-chloro-7′-methoxy-11′,12′-dimethyl-3,4-dihydro-2H,15′H-spiro[naphthalene-1,22′-[20]oxa[13]thia[1,14]diazatetracyclo [14.7.2.0~3,6~.0~19,24~]pentacosa[8,16,18,24]tetraen]-15′-one 13′,13′-dioxide] the figure was 70 nM.

The same assay, now with this note: read-out: OPM-2 10% FBS IC50 IP; OPM-2 cells, 10% FBS, 16 h, CellTiter-Glo.
Take `C[C@@H]1[C@@H](C)CCC[C@@](O)(CC(=O)N2CCC2)[C@@H]2CC[C@H]2CN2C[C@@]3(CCCc4cc(Cl)ccc43)COc3ccc(cc32)C(=O)NS1(=O)=O` [Example 100144, (1S,3′R,6′R,7′R,11′S,12′R)-7′-(2-(1-azetidinyl)-2-oxoethyl)-6-chloro-7′-hydroxy-11′,12′-dimethyl-3,4-dihydro-2H,15′H-spiro[naphthalene-1,22′-[20]oxa[13]thia[1,14]diazatetracyclo [14.7.2.0~3,6~.0~19,24~]pentacosa[16,18,24]trien]-15′-one 13′,13′-dioxide]: the IC50 came out at 208 nM.
Still for that read-out and setting: with `C[C@@H]1[C@@H](C)C/C=C/[C@@](O)(C#C[Si](C)(C)C)[C@@H]2CC[C@H]2CN2C[C@@]3(CCCc4cc(Cl)ccc43)COc3ccc(cc32)C(=O)NS1(=O)=O` [Example 100240, (1S,3′R,6′R,7′S,8′E,11′S,12′R)-6-chloro-7′-hydroxy-11′,12′-dimethyl-7′-((trimethylsilyl)ethynyl)-3,4-dihydro-2H,15′H-spiro[naphthalene-1,22′-[20]oxa[13]thia[1,14]diazatetracyclo [14.7.2.0~3,6~.0~19,24~]pentacosa[8,16,18,24]tetraen]-15′-one 13′,13′-dioxide] the figure was 266 nM.

Still in this assay, the particulars now being: read-out: OPM-2 10% FBS IC50 IP; OPM-2 cells, 10% FBS, 16 h incubation.
`CO[C@]1(CN2CCN3CCS(=O)(=O)C[C@@H]3C2)/C=C/C[C@H](C)[C@@H](C)S(=O)(=O)NC(=O)c2ccc3c(c2)N(C[C@@H]2CC[C@H]21)C[C@@]1(CCCc2cc(Cl)ccc21)CO3` [Example 219]: the half-inhibitory concentration (IC50) is 47 nM.
On the same count and under the same terms, as for `CO[C@]1(CN2CCN3CCN(C(C)=O)C[C@@H]3C2)/C=C/C[C@H](C)[C@@H](C)S(=O)(=O)NC(=O)c2ccc3c(c2)N(C[C@@H]2CC[C@H]21)C[C@@]1(CCCc2cc(Cl)ccc21)CO3` [Example 218], the figure is 92 nM.
